Measured values published in patent US7902249B2, “Indole derivatives substituted with long-chain alcohols and medicaments containing them” (Meiji Dairies Corporation, priority 2002, dated 2011).
Entries after “also recorded” stand apart in the source; their conditions may differ.

Key:
[1] = system: Fetal rat neurons in primary cultures; test: Effect on neurite outgrowth and neuron survival; assay type: cell-based; details: 10^−6 and 10^−7 M, incubation for 3 days, versus control group (FIG. 1)
Procedure: This experiment was conducted in accordance with the method of Luu, et al. (C. Girlanda-Junges, F. Keyling-Bilger, G. Schemitt & B. Luu, “Effect of Cyclohexenonic Long Chain Fatty Alcohols on Neurite Outgrowth. Study on Structure-Activity Relationship”, Tetrahedron, 54, 7735-77481998)). Fetal rat neurons in primary cultures were treated with Compound 1 at the concentrations of 10^−6 and 10^−7 M, followed by incubation for 3 days.

[2] = system: Human neuroblastoma cells, Lan-1; test: Induction of proliferation, differentiation and apoptosis of neuroblastoma cells; assay type: cell-based; set-up: key to Apoptosis / Proliferation / Differentiation: ++++: Extremely strongly stimulated (reinforced).; +++: Very strongly stimulated (reinforced).; ++: Strongly stimulated (reinforced).; +: Stimulated (reinforced).; +/−: No change.; −: Decreased (weakened); details: for effects on induction of differentiation or apoptosis versus proliferation: Lan-1 cells, summary of Table 1
Source text: Human neuroblastoma cells, Lan-1 (Lan-1: a human neuroblastoma cell line with M1 and M2 muscarinic receptors conjugated with intracellular Ca^2+) were used to investigate the effects of the present compounds on the induction of proliferation, differentiation and apoptosis.

human blood cells = test: Preventive effect on hemolysis in human blood cells induced by free radicals; assay type: cell-based; details: compared with control group (FIG. 2)
Procedure: An experiment was conducted in accordance with the method of D. Blache. FASEB J. et al. (E. Bourdon, N. Loreau & D. Blache. FABES J. “Glucose and free radicals impair the antioxidant properties of serum albumin”, 13, 233-244(1999)). The time required for 50% hemolysis (HT50) was measured and the extension of the time required for HT50 compared with that of a control group was plotted on a graph. In this experiment, Vitamin E was employed as a positive control.

| SMILES | Apoptosis ([2]; Day 1, 0.1 μM) | Differentiation ([2]; Day 1, 0.1 μM) | Proliferation ([2]; Day 1, 0.1 μM) | Apoptosis ([2]; Day 1, 10 μM) | Differentiation ([2]; Day 1, 10 μM) | Proliferation ([2]; Day 1, 10 μM) | Apoptosis ([2]; Day 1, 100 μM) | Differentiation ([2]; Day 1, 100 μM) | Proliferation ([2]; Day 1, 100 μM) | Apoptosis ([2]; Day 2, 0.1 μM) | Differentiation ([2]; Day 2, 0.1 μM) | Proliferation ([2]; Day 2, 0.1 μM) | Apoptosis ([2]; Day 2, 10 μM) | Differentiation ([2]; Day 2, 10 μM) | Proliferation ([2]; Day 2, 10 μM) | Apoptosis ([2]; Day 2, 100 μM) | Differentiation ([2]; Day 2, 100 μM) | Proliferation ([2]; Day 2, 100 μM) | Apoptosis ([2]; Day 5, 0.1 μM) | Differentiation ([2]; Day 5, 0.1 μM) | other results |
| --- | --- | --- | --- | --- | --- | --- | --- | --- | --- | --- | --- | --- | --- | --- | --- | --- | --- | --- | --- | --- | --- |
| OCCCCCCCCCCCCCCCCc1c[nH]c2ccccc12 [Compound 1, 3-(16-hydroxyhexadecyl)indole] | − | +/− | + | +/− | ++ | + | + | +++ | +/− | − | +/− | ++ | +/− | +++ | + | + | ++++ | − | − | +/− | proportion of the neurons with neurites of 50 μm or longer [1]: higher in the treated group than in the control group; melting point: 79 to 80 °C; Proliferation ([2]; Day 5, 0.1 μM): +/−; Apoptosis ([2]; Day 5, 10 μM): ++; Differentiation ([2]; Day 5, 10 μM): +++; Proliferation ([2]; Day 5, 10 μM): +/−; Apoptosis ([2]; Day 5, 100 μM): +++; Differentiation ([2]; Day 5, 100 μM): +; Proliferation ([2]; Day 5, 100 μM): −; Apoptosis ([2]; Day 7, 0.1 μM): +/−; Differentiation ([2]; Day 7, 0.1 μM): +; Proliferation ([2]; Day 7, 0.1 μM): +/−; Apoptosis ([2]; Day 7, 10 μM): ++; Differentiation ([2]; Day 7, 10 μM): ++++; Proliferation ([2]; Day 7, 10 μM): +/−; Apoptosis ([2]; Day 7, 100 μM): +++; Differentiation ([2]; Day 7, 100 μM): ++; Proliferation ([2]; Day 7, 100 μM): −; effects on induction of differentiation or apoptosis versus proliferation [2]: stronger effects on induction of differentiation or apoptosis of neuroblastoma cells rather than on proliferation; extension of the time required for 50% hemolysis (HT50) (human blood cells): extended HT50 |
| OCCc1c[nH]c2ccccc12 [Compound 2, 3-(2-hydroxyethyl)indole] |  |  |  |  |  |  |  |  |  |  |  |  |  |  |  |  |  |  |  |  | extension of the time required for 50% hemolysis (HT50) (human blood cells): extended HT50 |
| OCCCCCCCCCCc1c[nH]c2ccccc12 [Compound 3, 3-(10-hydroxydecyl)indole] | − | + | + | − | +++ | +/− | ++ | + | − | − | + | + | + | ++ | +/− | ++ | + | +/− | +/− | − | Proliferation ([2]; Day 5, 0.1 μM): +; Apoptosis ([2]; Day 5, 10 μM): +; Differentiation ([2]; Day 5, 10 μM): ++; Proliferation ([2]; Day 5, 10 μM): +/−; Apoptosis ([2]; Day 5, 100 μM): ++; Differentiation ([2]; Day 5, 100 μM): +++; Proliferation ([2]; Day 5, 100 μM): +/−; Apoptosis ([2]; Day 7, 0.1 μM): +/−; Differentiation ([2]; Day 7, 0.1 μM): +/−; Proliferation ([2]; Day 7, 0.1 μM): ++; Apoptosis ([2]; Day 7, 10 μM): +; Differentiation ([2]; Day 7, 10 μM): +++; Proliferation ([2]; Day 7, 10 μM): +/−; Apoptosis ([2]; Day 7, 100 μM): ++++; effects on induction of differentiation or apoptosis versus proliferation [2]: stronger effects on induction of differentiation or apoptosis of neuroblastoma cells rather than on proliferation |
| OCCCCCCCCCCCc1c[nH]c2ccccc12 [Compound 4, 3-(11-hydroxyundecyl)indole] | − | − | ++ | − | ++ | + | +++ | + | +/− | − | + | + | + | ++ | +/− | +++ | − | − | − | +/− | Proliferation ([2]; Day 5, 0.1 μM): +/−; Apoptosis ([2]; Day 5, 10 μM): −; Differentiation ([2]; Day 5, 10 μM): ++; Proliferation ([2]; Day 5, 10 μM): +/−; Apoptosis ([2]; Day 5, 100 μM): +; Differentiation ([2]; Day 5, 100 μM): ++++; Proliferation ([2]; Day 5, 100 μM): +; Apoptosis ([2]; Day 7, 0.1 μM): −; Differentiation ([2]; Day 7, 0.1 μM): +/−; Proliferation ([2]; Day 7, 0.1 μM): ++; Apoptosis ([2]; Day 7, 10 μM): +/−; Differentiation ([2]; Day 7, 10 μM): ++; Proliferation ([2]; Day 7, 10 μM): +/−; Apoptosis ([2]; Day 7, 100 μM): ++++; effects on induction of differentiation or apoptosis versus proliferation [2]: stronger effects on induction of differentiation or apoptosis of neuroblastoma cells rather than on proliferation; extension of the time required for 50% hemolysis (HT50) (human blood cells): extended HT50; also recorded: strong effect |
